# Measurements reported in ChEMBL document CHEMBL5303573, “Mapping human microbiome drug metabolism by gut bacteria and their genes” (Nature, 2019).
# How the values were obtained:
# [1] = The drug is tested on Collinsella aerofaciens strain: ATCC25986 for biotransformation. The drug concentrations were measured before and after a 12-h incubation by liquid-chromatography-coupled mass spectrometry (LC–MS); details: 2 µM
# [2] = The drug is tested on Alistipes indistinctus strain: DSM22520 for biotransformation. The drug concentrations were measured before and after a 12-h incubation by liquid-chromatography-coupled mass spectrometry (LC–MS); details: 2 µM
# [3] = The drug is tested on Bacteroides vulgatus strain: ATCC8482 for biotransformation. The drug concentrations were measured before and after a 12-h incubation by liquid-chromatography-coupled mass spectrometry (LC–MS); details: phocaeicola vulgatus, 2 µM
# [4] = The drug is tested on Parabacteroides merdae strain: ATCC43184 for biotransformation. The drug concentrations were measured before and after a 12-h incubation by liquid-chromatography-coupled mass spectrometry (LC–MS); details: 2 µM
# [5] = The drug is tested on Blautia hansenii strain: DSM20583 for biotransformation. The drug concentrations were measured before and after a 12-h incubation by liquid-chromatography-coupled mass spectrometry (LC–MS); details: 2 µM
# [6] = The drug is tested on Clostridium sporogenes strain: ATCC15579 for biotransformation. The drug concentrations were measured before and after a 12-h incubation by liquid-chromatography-coupled mass spectrometry (LC–MS); details: 2 µM
# [7] = The drug is tested on Dorea formicigenerans strain: ATCC27755 for biotransformation. The drug concentrations were measured before and after a 12-h incubation by liquid-chromatography-coupled mass spectrometry (LC–MS); details: 2 µM
# [8] = The drug is tested on Eubacterium rectale strain: ATCC33656 for biotransformation. The drug concentrations were measured before and after a 12-h incubation by liquid-chromatography-coupled mass spectrometry (LC–MS); details: agathobacter rectalis, 2 µM
# [9] = The drug is tested on Ruminococcus gnavus strain: ATCC29149 for biotransformation. The drug concentrations were measured before and after a 12-h incubation by liquid-chromatography-coupled mass spectrometry (LC–MS); details: mediterraneibacter gnavus, 2 µM
# [10] = The drug is tested on Ruminococcus lactaris strain: ATCC29176 for biotransformation. The drug concentrations were measured before and after a 12-h incubation by liquid-chromatography-coupled mass spectrometry (LC–MS); details: 2 µM
# [11] = The drug is tested on Subdoligranulum variabile strain: DSM15176 for biotransformation. The drug concentrations were measured before and after a 12-h incubation by liquid-chromatography-coupled mass spectrometry (LC–MS); details: 2 µM
# [12] = The drug is tested on Providencia stuartii strain: ATCC25827 for biotransformation. The drug concentrations were measured before and after a 12-h incubation by liquid-chromatography-coupled mass spectrometry (LC–MS); details: 2 µM
# [13] = bacteroides fragilis, 12 h, 2 µM
# Description: The drug is tested on Bacteroides fragilis strain: NCTC 9343 for biotransformation. The drug concentrations were measured before and after a 12-h incubation by liquid-chromatography-coupled mass spectrometry (LC–MS)
# [14] = bacteroides fragilis, 12 h, 2 µM; remark: listed apart in the source
# Description: The drug is tested on Bacteroides fragilis strain: 3397 (T10) for biotransformation. The drug concentrations were measured before and after a 12-h incubation by liquid-chromatography-coupled mass spectrometry (LC–MS)
# [15] = parabacteroides johnsonii, 12 h, 2 µM
# Description: The drug is tested on Parabacteroides johnsonii strain: DSM18315 for biotransformation. The drug concentrations were measured before and after a 12-h incubation by liquid-chromatography-coupled mass spectrometry (LC–MS)
# [16] = segatella copri, 12 h, 2 µM
# Description: The drug is tested on Prevotella copri strain: DSM18205 for biotransformation. The drug concentrations were measured before and after a 12-h incubation by liquid-chromatography-coupled mass spectrometry (LC–MS)
# [17] = enterocloster bolteae, 12 h, 2 µM
# Description: The drug is tested on Clostridium bolteae strain: ATCCBAA-613 for biotransformation. The drug concentrations were measured before and after a 12-h incubation by liquid-chromatography-coupled mass spectrometry (LC–MS)
# [18] = roseburia intestinalis, 12 h, 2 µM
# Description: The drug is tested on Roseburia intestinalis strain: L1-82 for biotransformation. The drug concentrations were measured before and after a 12-h incubation by liquid-chromatography-coupled mass spectrometry (LC–MS)
# [19] = The drug is tested on Bacteroides fragilis strain: HMW615 for biotransformation. The drug concentrations were measured before and after a 12-h incubation by liquid-chromatography-coupled mass spectrometry (LC–MS); details: 2 µM
SMILES,Bacterial Biotransformation [7],Bacterial Biotransformation [9],Bacterial Biotransformation [19],Bacterial Biotransformation [1],Bacterial Biotransformation [2],Bacterial Biotransformation [3],Bacterial Biotransformation [4],Bacterial Biotransformation [5],Bacterial Biotransformation [6],Bacterial Biotransformation [8],Bacterial Biotransformation [10],Bacterial Biotransformation [11],Bacterial Biotransformation [12],Bacterial Biotransformation [13],Bacterial Biotransformation [14],Bacterial Biotransformation [15],Bacterial Biotransformation [16],Bacterial Biotransformation [17],Bacterial Biotransformation [18]
CSc1ccc2c(c1)C(N1CCN(C)CC1)Cc1ccccc1S2.O=C(O)/C=C\C(=O)O (stereo not given),Compound NOT metabolized,Compound NOT metabolized,,Compound NOT metabolized,Compound NOT metabolized,Compound NOT metabolized,Compound NOT metabolized,Compound NOT metabolized,Compound metabolized,Compound NOT metabolized,Compound NOT metabolized,Compound NOT metabolized,Compound NOT metabolized,Compound NOT metabolized,Compound NOT metabolized,Compound metabolized,Compound metabolized,Compound NOT metabolized,Compound NOT metabolized
COC(=O)[C@H](c1ccccc1Cl)N1CCc2sccc2C1.O=S(=O)(O)O [CLOPIDOGREL BISULFATE],Compound NOT metabolized,Compound NOT metabolized,Compound metabolized,Compound NOT metabolized,Compound NOT metabolized,Compound metabolized,Compound metabolized,Compound metabolized,Compound metabolized,,Compound NOT metabolized,Compound NOT metabolized,Compound NOT metabolized,Compound metabolized,Compound metabolized,Compound metabolized,Compound NOT metabolized,Compound NOT metabolized,Compound NOT metabolized
COc1cc2c(c(OC)c1OC)-c1ccc(OC)c(=O)cc1[C@@H](NC(C)=O)CC2 [COLCHICINE],Compound NOT metabolized,,,Compound NOT metabolized,Compound NOT metabolized,Compound metabolized,Compound NOT metabolized,Compound metabolized,Compound metabolized,Compound NOT metabolized,Compound NOT metabolized,Compound NOT metabolized,Compound NOT metabolized,Compound metabolized,Compound metabolized,Compound metabolized,Compound metabolized,Compound NOT metabolized,Compound metabolized
Cc1nc2n(c(=O)c1CCN1CCC(c3noc4cc(F)ccc34)CC1)CCCC2 [RISPERIDONE],,Compound metabolized,,Compound NOT metabolized,Compound metabolized,Compound NOT metabolized,Compound NOT metabolized,Compound metabolized,Compound metabolized,Compound metabolized,Compound metabolized,Compound metabolized,,Compound NOT metabolized,Compound NOT metabolized,Compound NOT metabolized,Compound NOT metabolized,Compound NOT metabolized,Compound metabolized

# Now from value to molecule, other results behind:
Bacterial Biotransformation [7],Bacterial Biotransformation [9],Bacterial Biotransformation [19],SMILES,Bacterial Biotransformation [1],Bacterial Biotransformation [2],Bacterial Biotransformation [3],Bacterial Biotransformation [4],Bacterial Biotransformation [5],Bacterial Biotransformation [6],Bacterial Biotransformation [8],Bacterial Biotransformation [10],Bacterial Biotransformation [11],Bacterial Biotransformation [12],Bacterial Biotransformation [13],Bacterial Biotransformation [14],Bacterial Biotransformation [15],Bacterial Biotransformation [16],Bacterial Biotransformation [17],Bacterial Biotransformation [18]
Compound NOT metabolized,Compound NOT metabolized,Compound NOT metabolized,O=C1CN2Cc3c(ccc(Cl)c3Cl)N=C2N1 [ANAGRELIDE],Compound NOT metabolized,Compound NOT metabolized,,,Compound metabolized,Compound NOT metabolized,,Compound NOT metabolized,Compound NOT metabolized,Compound NOT metabolized,Compound NOT metabolized,Compound NOT metabolized,Compound metabolized,,Compound NOT metabolized,
Compound NOT metabolized,Compound NOT metabolized,Compound metabolized,O=C(O)COCCN1CCN(C(c2ccccc2)c2ccc(Cl)cc2)CC1 (stereo not given) [CETIRIZINE],Compound NOT metabolized,Compound metabolized,Compound metabolized,Compound NOT metabolized,Compound metabolized,Compound NOT metabolized,Compound NOT metabolized,Compound NOT metabolized,Compound metabolized,,Compound metabolized,Compound metabolized,Compound NOT metabolized,Compound metabolized,Compound NOT metabolized,Compound NOT metabolized
Compound NOT metabolized,Compound NOT metabolized,Compound NOT metabolized,CN1CCC[C@@H]1CCO[C@](C)(c1ccccc1)c1ccc(Cl)cc1.O=C(O)/C=C/C(=O)O [CLEMASTINE FUMARATE],Compound NOT metabolized,Compound NOT metabolized,Compound metabolized,Compound NOT metabolized,Compound metabolized,,,Compound NOT metabolized,Compound NOT metabolized,Compound NOT metabolized,Compound metabolized,Compound metabolized,Compound NOT metabolized,Compound metabolized,Compound NOT metabolized,Compound metabolized
Compound metabolized,Compound NOT metabolized,Compound metabolized,CC(C(=O)O)c1ccc2c(c1)Cc1cccnc1O2 (stereo not given) [PRANOPROFEN],Compound NOT metabolized,Compound metabolized,Compound metabolized,Compound metabolized,Compound metabolized,,,Compound NOT metabolized,Compound NOT metabolized,Compound metabolized,Compound metabolized,Compound metabolized,Compound metabolized,Compound metabolized,Compound metabolized,Compound NOT metabolized
